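Compound exposure: 48 hours, 5 concentrations, 96-well plates. At the GI50, growth is halved.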 The source made the active and inactive calls. Rule as the data show it: active = GI50 up to about 1.1 µM and inactive = higher.
Assays:
Assay in all cases: NCI anticancer screen, dose series, 48 h
SF-295 = system: SF-295
RXF 393 = system: RXF 393
A498 = system: A498
A549 = system: A549
HOP-62 = system: HOP-62
SK-MEL-28 = system: SK-MEL-28
HT-29 = system: HT-29
SF-539 = system: SF-539
MOLT-4 = system: MOLT-4
NCI-H460 = system: NCI-H460
COLO 205 = system: COLO 205
UACC-257 = system: UACC-257
OVCAR-5 = system: OVCAR-5
NCI-H23 = system: NCI-H23
SK-OV-3 = system: SK-OV-3
LOX IMVI = system: LOX IMVI
SK-MEL-5 = system: SK-MEL-5
SW-620 = system: SW-620
HCT-116 = system: HCT-116
CCRF-CEM = system: CCRF-CEM

Row | Compound | GI50 (SF-295) | GI50 (RXF 393) | GI50 (A498) | GI50 (A549) | GI50 (HOP-62) | GI50 (SK-MEL-28) | GI50 (HT-29) | GI50 (SF-539) | GI50 (MOLT-4) | GI50 (NCI-H460) | GI50 (COLO 205) | GI50 (UACC-257) | GI50 (OVCAR-5) | GI50 (NCI-H23) | GI50 (SK-OV-3) | GI50 (LOX IMVI) | GI50 (SK-MEL-5) | GI50 (SW-620) | GI50 (HCT-116) | GI50 (CCRF-CEM)
1 | Nc1c(S(=O)(=O)O)cc2cc(S(=O)(=O)O)ccc2c1/N=N/c1ccc(-c2ccc(/N=N/c3c(N)c(S(=O)(=O)O)cc4cc(S(=O)(=O)O)ccc34)c(S(=O)(=O)O)c2)cc1 | > 100 µM (inactive) | > 100 µM (inactive) | > 100 µM (inactive) | > 83.4 µM (inactive) | > 100 µM (inactive) | > 100 µM (inactive) | > 100 µM (inactive) | > 100 µM (inactive) | 95.7 µM (inactive) | > 31.6 µM (inactive) | > 100 µM (inactive) | > 100 µM (inactive) | > 100 µM (inactive) | > 100 µM (inactive) | > 100 µM (inactive) | > 100 µM (inactive) | > 100 µM (inactive) | > 100 µM (inactive) | > 100 µM (inactive) | > 89.3 µM (inactive)
2 | COc1cc2cc3c4cc(OC)c(OC)cc4cc[n+]3cc2cc1OC | > 100 µM (inactive) | 46.6 µM (inactive) | > 100 µM (inactive) | > 100 µM (inactive) | > 100 µM (inactive) | > 100 µM (inactive) | > 100 µM (inactive) | > 100 µM (inactive) | > 75.5 µM (inactive) | > 100 µM (inactive) | 78.2 µM (inactive) | > 100 µM (inactive) | > 100 µM (inactive) | > 76.7 µM (inactive) | > 82.2 µM (inactive) | > 100 µM (inactive) | > 100 µM (inactive) | > 100 µM (inactive) | > 100 µM (inactive) | > 100 µM (inactive)
3 | N#C/C(=C\NC(=S)Nc1ccc(S(=O)(=O)Nc2ccccn2)cc1)C(N)=O | > 100 µM (inactive) | > 100 µM (inactive) | > 100 µM (inactive) | > 100 µM (inactive) | > 100 µM (inactive) | > 100 µM (inactive) | > 100 µM (inactive) | > 100 µM (inactive) | 25.5 µM (inactive) | > 100 µM (inactive) | > 100 µM (inactive) | > 100 µM (inactive) | > 100 µM (inactive) | 80.2 µM (inactive) | > 100 µM (inactive) | > 100 µM (inactive) | > 100 µM (inactive) | > 100 µM (inactive) | > 100 µM (inactive) | 42.2 µM (inactive)
4 | c1ccc(C(c2ccccc2)[P+](c2ccccc2)(c2ccccc2)c2ccccc2)cc1 | 1.7 µM (inactive) | 2.24 µM (inactive) | 2.32 µM (inactive) | 0.422 µM (active) | 0.867 µM (active) | 0.446 µM (active) | 0.332 µM (active) | 1.27 µM (inactive) | 0.419 µM (active) | 0.456 µM (active) | 0.289 µM (active) | 0.348 µM (active) | 0.933 µM (active) | 0.45 µM (active) | 0.596 µM (active) | 0.265 µM (active) | 0.37 µM (active) | 0.466 µM (active) | 0.326 µM (active) | 0.317 µM (active)
5 | CC1(C)C(N2CCOCC2)CS1(=O)=O (stereo not given) | > 10 µM (inactive) | > 10 µM (inactive) | > 10 µM (inactive) | > 10 µM (inactive) | > 10 µM (inactive) | > 10 µM (inactive) | > 10 µM (inactive) | > 10 µM (inactive) | > 10 µM (inactive) | > 10 µM (inactive) | > 10 µM (inactive) | > 10 µM (inactive) | > 10 µM (inactive) | > 10 µM (inactive) | > 10 µM (inactive) | > 10 µM (inactive) | > 10 µM (inactive) | > 10 µM (inactive) | > 10 µM (inactive) | > 10 µM (inactive)
6 | CC(=O)NNc1nc(C)c(C(=O)NNC(=O)C(=O)Nc2ccc([N+](=O)[O-])cc2[N+](=O)[O-])s1 | > 100 µM (inactive) | 80.4 µM (inactive) | > 100 µM (inactive) | 68.9 µM (inactive) | > 100 µM (inactive) | > 100 µM (inactive) | 55.3 µM (inactive) | > 100 µM (inactive) | 37.1 µM (inactive) | > 100 µM (inactive) | > 100 µM (inactive) | > 100 µM (inactive) | > 100 µM (inactive) | > 100 µM (inactive) | > 100 µM (inactive) | > 100 µM (inactive) | > 100 µM (inactive) | > 100 µM (inactive) | > 100 µM (inactive) | 22.3 µM (inactive)
